Patent US8846671B2, “Heterocyclic alkynyl benzene compounds and medical compositions and uses thereof” (Guangzhou Institute of Biomedicine and Health, Chinese …, priority 2010, dated 2014)
Like-named read-outs stand apart in the source and are kept apart here.

How the values were obtained:
[1] = biological target: BAF3-T315I cells (Ba/F3 cell line stably expressing BCR/ABL T315I) (Homo sapiens, UniProt P00519, T315I, cells depend on it); assay: tumor cell proliferation, MTT or CCK8 assay, 72 h incubation; format: cell-based, mice
Experimental: (§1) The heterocyclic alkynyl benzene compounds at different concentrations (1×10^−10˜1×10^−5M) were incubated for 72 hours individually applied to 6 cell lines K562 (human CML cell line), MOLT-4 (human ALL cell line), U937 (human CML cell line), MEG-01 (human CML cell line), L78 (human lung cancer cell line), Ba/F3-T315I (mice Pro-B cells transformed with Bcr-AblT315I and STI57′-resistant cell line). After incubation for 72 hrs, cell proliferation was then determined by MTT assay or CCK8 assay, and 4 hr incubation is further conducted, the absorbance at 570 nm (CCK8, 450 nm, 650 nm) was measured using enzyme Microplate Reader.

[2] = system: K562R cells (imatinib-resistant cell line); assay: as above; format: cell-based; settings: Homo sapiens, K-562R, imatinib-resistant K562R, read-out: IC50 on tumor cell proliferation, K562R cells
[3] = system: K562 (human chronic myelogenous leukemia cell line); assay: as above; format: cell-based; settings: K562, 72 h, read-out: IC50 on tumor cell proliferation, K562
Experimental: as §1, with “Reader. […] Based on the inhibition potency of the heterocyclic alkynyl benzene compounds on the cell proliferation, IC50 values were calculated and summarized in the Table 1 and Table 2 (The compounds used were synthesized by Examples 1-40, and the compounds are marked with Drug No. series in Table 1).” for “Reader.”

[4] = system: MOLT-4 (Human acute lymphoblastic leukemia cell line); assay: as above; format: cell-based; settings: MOLT-4, 72 h, read-out: IC50 on tumor cell proliferation, MOLT-4
Experimental: as §1, with “Reader. […] Based on the inhibition potency of the heterocyclic alkynyl benzene compounds on the cell proliferation, IC50 values were calculated and summarized in the Table 1 and Table 2 (The compounds used were synthesized by Examples 1-40, and the compounds are marked with Drug No. series in Table 1).” for “Reader.”

[5] = Pharmacokinetics and bioavailability in rats; format: in vivo; settings: SD rats; corresponding pharmaceutical acceptable salt forms
Experimental: Pharmacokinetics and bioavailability in rats. […] The blood samples were collected at the proper time points after administration, add heparin-anticoagulant, and the supernatants of the blood samples were collected (3000 rpm, 10 min) and stored at -20° C. for HPLC-MS analysis. After protein-precipitation procedure with acetonitrile, supernatants were collected after 3000 rpm, 10 min for analysis with HPLC-MS. The data were analyzed with software DAS2.0 to separately acquire the parameters of compartment models and non-compartment models. The bioavailability was calculated according to AUC data.

U937 Cell line = assay: tumor cell proliferation, MTT or CCK8 assay, 72 h incubation; format: cell-based; settings: Homo sapiens, U-937; 72 h, MTT or CCK8; no unit in cell; read-out: IC50 on tumor cell proliferation, U937
Experimental: as §1, with “Reader. […] Based on the inhibition potency of the heterocyclic alkynyl benzene compounds on the cell proliferation, IC50 values were calculated and summarized in the Table 1 and Table 2 (The compounds used were synthesized by Examples 1-40, and the compounds are marked with Drug No. series in Table 1).” for “Reader.”

[6] = Ba/F3 expressing BCR/ABL T315I, 72 h, Table 1; read-out: IC50 on tumor cell proliferation, BAF3-T315I cells

Row | Compound | GI50 [1, 6] [nM] | IC50 [2] [nM] | IC50 ([3]; MTT or CCK8, nM) [nM] | IC50 ([4]; MTT or CCK8, nM) [nM] | pharmacokinetics parameters, overall judgement [5] | GI50 ([1]; read-out: IC50 on tumor cell proliferation, BAF3-T315I cells; Ba/F3 expressing BCR/ABL T315I, 72 h, Table 1) [nM] | IC50 ([3]; MTT or CCK8, no unit in cell) [nM] | IC50 ([4]; MTT or CCK8, no unit in cell) [nM] | IC50 (U937 Cell line) [nM]
1 | Cc1cn(-c2cc(NC(=O)c3ccc(C)c(C#Cc4cnc5ccnn5c4)c3)cc(C(F)(F)F)c2)cn1 [D822, 4-methyl-N-(3-(4-methyl-1H-imidazol-1-yl)-5-(trifluoromethyl)phenyl)-3-(2-(pyrazolo[1,5-a]pyrimidin-6-yl)ethynyl)benzamide] | 1100 | 580 | 4.34 | > 100 | adequate pharmacokinetics parameters | – | – | – | –
2 | Cc1ccc(C(=O)Nc2ccc(CN3CCN(C)CC3)c(C(F)(F)F)c2)cc1C#Cc1cnc2[nH]ncc2c1 [D824, 3-(2-(1H-pyrazolo[3,4-b]pyridin-5-yl)ethynyl)-4-methyl-N-(4-((4-methylpiperazin-1-yl)methyl)-3-(trifluoromethyl)phenyl)benzamide] | – | 14 | 0.494 | > 100 | adequate pharmacokinetics parameters | 1.65 | – | – | –
3 | Cc1ccc(C(=O)Nc2ccc(CN3CCN(C)CC3)c(C(F)(F)F)c2)cc1C#Cc1cnc(NC2CC2)nc1 [D825, 3-(2-(2-(cyclopropylamino)pyrimidin-5-yl)ethynyl)-4-methyl-N-(4-((4-methylpiperazin-1-yl)methyl)-3-(trifluoromethyl)phenyl)benzamide] | 15.7 | 50 | 1.88 | 92.9 | adequate pharmacokinetics parameters | – | – | – | –
4 | Cc1ccc(C(=O)Nc2cc(-n3ccnc3)cc(C(F)(F)F)c2)cc1C#Cc1cnc2[nH]ncc2c1 [D831, N-(3-(1H-imidazol-1-yl)-5-(trifluoromethyl)phenyl)-3-(2-(1H-pyrazolo[3,4-b]pyridin-5-yl)ethynyl)-4-methylbenzamide] | 36.8 | 54 | 0.466 | 7130 | adequate pharmacokinetics parameters | – | – | – | –
5 | Cc1cn(-c2cc(NC(=O)c3ccc(C)c(C#Cc4cnc5[nH]ccc5c4)c3)cc(C(F)(F)F)c2)cn1 [D832, 3-(2-(1H-pyrrolo[2,3-b]pyridin-5-yl)ethynyl)-4-methyl-N-(3-(4-methyl-1H-imidazol-1-yl)-5-(trifluoromethyl)phenyl)benzamide] | 21.8 | 200 | 7.27 | > 100 | – | – | – | – | –
6 | Cc1cn(-c2cc(NC(=O)c3ccc(C)c(C#Cc4cnc(NC[C@H](O)CO)nc4)c3)cc(C(F)(F)F)c2)cn1 [D834, 3-(2-(2-((S)-2,3-dihydroxypropylamino)pyrimidin-5-yl)ethynyl)-4-methyl-N-(3-(4-methyl-1H-imidazol-1-yl)-5-(trifluoromethyl)phenyl)benzamide] | 215 | 190 | 8.7 | > 100 | – | – | – | – | –
7 | Cc1ncn(-c2cc(NC(=O)c3ccc(C)c(C#Cc4cnc5[nH]ncc5c4)c3)cc(C(F)(F)F)c2)n1 [D835, 3-(2-(1H-pyrazolo[3,4-b]pyridin-5-yl)ethynyl)-4-methyl-N-(3-(3-methyl-1H-1,2,4-triazol-1-yl)-5-(trifluoromethyl)phenyl)benzamide] | 8.58 | 26 | 0.402 | > 100 | – | – | – | – | –
8 | Cc1ccc(C(=O)Nc2ccc(CN3CCOCC3)c(C(F)(F)F)c2)cc1C#Cc1cnc2ccnn2c1 [D931, 4-methyl-N-(4-(morpholinomethyl)-3-(trifluoromethyl)phenyl)-3-(2-(pyrazolo[1,5-a]pyrimidin-6-yl)ethynyl)benzamide] | 2750 | 510 | – | – | – | – | > 10000 | 7430 | 4600
9 | Cc1ccc(C(=O)Nc2ccc(CN3CC[C@H](N(C)C)C3)c(C(F)(F)F)c2)cc1C#Cc1cnc2ccnn2c1 [D940, (S)—N-(4-((3-(dimethylamino)pyrrolidin-1-yl)methyl)-3-(trifluoromethyl)phenyl)-4-methyl-3-(2-(pyrazolo[1,5-a]pyrimidin-6-yl)ethynyl)benzamide] | 245 | 32 | – | – | – | – | 65.7 | 955 | 715
10 | Cc1cn(-c2cc(NC(=O)c3ccc(C)c(C#Cc4cnc5ccnn5c4)c3)cc(C(C)(C)C)c2)cn1 [D941, N-(3-tert-butyl-5-(4-methyl-1H-imidazol-1-yl)phenyl)-4-methyl-3-(2-(pyrazolo[1,5-a]pyrimidin-6-yl)ethynyl)benzamide] | 102 | 410 | – | – | – | – | 2.34 | 340 | 696
11 | Cc1ccc(C(=O)Nc2ccc(CN3CCN(CCO)CC3)c(C(F)(F)F)c2)cc1C#Cc1cnc2ccnn2c1 [D942, N-(4-((4-(2-hydroxyethyl)piperazin-1-yl)methyl)-3-(trifluoromethyl)phenyl)-4-methyl-3-(2-(pyrazolo[1,5-a]pyrimidin-6-yl)ethynyl)benzamide] | 102 | 44 | – | – | – | – | 3.54 | 674 | 1300
12 | Cc1ccc(C(=O)Nc2ccc(CN3CC[C@@H](N(C)C)C3)c(C(F)(F)F)c2)cc1C#Cc1cnc2ccnn2c1 [D943] | 618 | 320 | – | – | – | – | 8.3 | 1630 | 2120
13 | Cc1cn(-c2cc(F)cc(NC(=O)c3ccc(C)c(C#Cc4cnc5[nH]ncc5c4)c3)c2)cn1 [D963, 3-(2-(1H-pyrazolo[3,4-b]pyridin-5-yl)ethynyl)-N-(3-fluoro-5-(4-methyl-1H-imidazol-1-yl)phenyl)-4-methylbenzamide] | 243 | 75.1 | – | – | – | – | 0.997 | – | > 1000
14 | Cc1cn(-c2cc(Cl)cc(NC(=O)c3ccc(C)c(C#Cc4cnc5[nH]ncc5c4)c3)c2)cn1 [D964, 3-(2-(1H-pyrazolo[3,4-b]pyridin-5-yl)ethynyl)-N-(3-chloro-5-(4-methyl-1H-imidazol-1-yl)phenyl)-4-methylbenzamide] | 24.2 | 32 | – | – | – | – | 0.938 | – | > 1000
15 | Cc1ccc(C(=O)Nc2ccc(CN3CC[C@@H](N(C)C)C3)c(C(F)(F)F)c2)cc1C#Cc1cnc2[nH]ncc2c1 [D965, (R)-3-(2-(1H-pyrazolo[3,4-b]pyridin-5-yl)ethynyl)-N-(4-((3-(dimethylamino)pyrrolidin-1-yl)methyl)-3-(trifluoromethyl)phenyl)-4-methylbenzamide] | 6.87 | 5.7 | – | – | – | – | 0.588 | – | 817
16 | Cc1ccc(C(=O)Nc2ccc(CN3CC[C@H](N(C)C)C3)c(C(F)(F)F)c2)cc1C#Cc1cnc2[nH]ncc2c1 [D966, (S)-3-(2-(1H-pyrazolo[3,4-b]pyridin-5-yl)ethynyl)-N-(4-((3-(dimethylamino)pyrrolidin-1-yl)methyl)-3-(trifluoromethyl)phenyl)-4-methylbenzamide] | 13.8 | – | – | – | – | – | 0.324 | – | 18.5
17 | Cc1cn(-c2cccc(NC(=O)c3ccc(C)c(C#Cc4cnc5[nH]ncc5c4)c3)c2)cn1 [D967, 3-(2-(1H-pyrazolo[3,4-b]pyridin-5-yl)ethynyl)-4-methyl-N-(3-(4-methyl-1H-imidazol-1-yl)phenyl)benzamide] | 798 | 207 | – | – | – | – | 0.314 | – | 5830
18 | Cc1cn(-c2cc(NC(=O)c3ccc(C)c(C#Cc4cnc5[nH]ncc5c4)c3)cc(C(C)(C)C)c2)cn1 [D968, 3-(2-(1H-pyrazolo[3,4-b]pyridin-5-yl)ethynyl)-N-(3-tert-butyl-5-(4-methyl-1H-imidazol-1-yl)phenyl)-4-methylbenzamide] | 6.36 | 32 | – | – | – | – | 0.701 | – | > 1000
